Columns and labels:
[1] = biological target: T1, Peptidyl-glycine alpha-amidating monooxygenase (Homo sapiens, UniProt P19021); assay: Competitive inhibition of PAM in human DMS53 cells using as(R)-Tyr-(S)-Val-Gly as substrate after 2 hrs by HPLC analysis; type: cell-based, DMS-53
T1 sequence (P19021 whole entry): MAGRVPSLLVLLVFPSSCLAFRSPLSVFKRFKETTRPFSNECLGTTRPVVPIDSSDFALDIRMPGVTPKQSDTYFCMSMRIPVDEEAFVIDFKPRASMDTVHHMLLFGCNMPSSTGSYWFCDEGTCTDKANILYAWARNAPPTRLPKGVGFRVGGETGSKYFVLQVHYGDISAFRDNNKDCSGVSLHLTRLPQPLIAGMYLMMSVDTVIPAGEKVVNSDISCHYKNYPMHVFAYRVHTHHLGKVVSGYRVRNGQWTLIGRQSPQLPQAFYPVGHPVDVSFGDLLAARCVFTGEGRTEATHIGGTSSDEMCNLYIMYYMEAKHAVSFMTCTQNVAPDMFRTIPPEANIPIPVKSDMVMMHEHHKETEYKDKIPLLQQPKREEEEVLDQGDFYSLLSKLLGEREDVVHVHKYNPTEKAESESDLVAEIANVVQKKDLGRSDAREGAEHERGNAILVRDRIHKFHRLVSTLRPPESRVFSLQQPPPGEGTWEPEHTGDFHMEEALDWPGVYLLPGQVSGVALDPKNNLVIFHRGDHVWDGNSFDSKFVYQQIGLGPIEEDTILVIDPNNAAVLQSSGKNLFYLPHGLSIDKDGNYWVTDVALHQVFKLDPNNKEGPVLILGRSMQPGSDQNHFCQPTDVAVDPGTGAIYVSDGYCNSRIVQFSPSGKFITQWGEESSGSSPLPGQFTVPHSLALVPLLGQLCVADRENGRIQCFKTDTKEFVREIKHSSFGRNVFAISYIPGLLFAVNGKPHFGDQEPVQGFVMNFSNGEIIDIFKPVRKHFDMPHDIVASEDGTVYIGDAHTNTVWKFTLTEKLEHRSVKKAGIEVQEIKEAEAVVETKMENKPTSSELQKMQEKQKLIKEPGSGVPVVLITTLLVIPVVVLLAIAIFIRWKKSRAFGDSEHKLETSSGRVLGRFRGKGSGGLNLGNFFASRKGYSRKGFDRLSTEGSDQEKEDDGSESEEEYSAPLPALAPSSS

[2] = biological target: T1, Peptidyl-glycine alpha-amidating monooxygenase; assay: Competitive inhibition of secreted PAM in human DMS53 cell culture medium using as(R)-Tyr-(S)-Val-Gly as substrate after 2 hrs by HPLC analysis; parameters: species or system DMS-53

Row | IC50 [1] [µM] | IC50 [2] [µM] | Structure (SMILES)
1 | 560 | 160 | C[C@H](NC(=O)CN)C(=O)N[C@@H](Cc1ccccc1)C(=O)OCC(=O)O
2 | 350 | 370 | C[C@H](N)C(=O)N[C@@H](Cc1ccccc1)C(=O)OCC(=O)O

From ChEMBL document CHEMBL2203217, “Prohormone-substrate peptide sequence recognition by peptidylglycine α-amidating monooxygenase and its reflection in increased glycolate inhibitor potency” (Bioorg Med Chem Lett, 2012)
